In brackets after ≈: the same amount, converted by molar mass.
Tests used:
[1] = target: T1, Prostaglandin G/H synthase 1 (Homo sapiens, UniProt P23219); test: Inhibition of human recombinant COX1 expressed in Sf9 cell microsomes assessed as reduction in conversion of arachidonic acid to PGE2 at 250 uM incubated for 5 mins by HTRF assay
Beta-secretase 1 = Beta-secretase 1 (Homo sapiens, UniProt P56817); test: Inhibition of BACE1 (unknown origin)
[2] = target: T2, Replicase polyprotein 1ab (Severe acute respiratory syndrome-related coronavirus, UniProt P0C6X7); test: Inhibition of SARS coronavirus main proteinase 3C-like protease
[3] = target: T2, Replicase polyprotein 1ab; test: Binding affinity to SARS coronavirus main proteinase 3C-like protease
[4] = target: T1, Prostaglandin G/H synthase 1; test: Inhibition of human recombinant COX1 expressed in Sf9 cell microsomes assessed as reduction in conversion of arachidonic acid to PGE2 incubated for 5 mins by HTRF assay
[5] = system: Mycobacterium tuberculosis; test: Antimicrobial activity against Mycobacterium tuberculosis str. Erdman assessed as complete inhibition of growth incubated for 14 days by microplate assay; type: functional; settings: Erdman = ATCC 35801, 336 h
[6] = system: Mycobacterium tuberculosis; test: Inhibition of Mycobacterium tuberculosis InhA at 80 uM using DD-CoA and NADH
Acetylcholinesterase = Acetylcholinesterase (Homo sapiens, UniProt P22303); test: Inhibition of AChE (unknown origin)
Chain of Acetylcholinesterase (P22303 whole entry): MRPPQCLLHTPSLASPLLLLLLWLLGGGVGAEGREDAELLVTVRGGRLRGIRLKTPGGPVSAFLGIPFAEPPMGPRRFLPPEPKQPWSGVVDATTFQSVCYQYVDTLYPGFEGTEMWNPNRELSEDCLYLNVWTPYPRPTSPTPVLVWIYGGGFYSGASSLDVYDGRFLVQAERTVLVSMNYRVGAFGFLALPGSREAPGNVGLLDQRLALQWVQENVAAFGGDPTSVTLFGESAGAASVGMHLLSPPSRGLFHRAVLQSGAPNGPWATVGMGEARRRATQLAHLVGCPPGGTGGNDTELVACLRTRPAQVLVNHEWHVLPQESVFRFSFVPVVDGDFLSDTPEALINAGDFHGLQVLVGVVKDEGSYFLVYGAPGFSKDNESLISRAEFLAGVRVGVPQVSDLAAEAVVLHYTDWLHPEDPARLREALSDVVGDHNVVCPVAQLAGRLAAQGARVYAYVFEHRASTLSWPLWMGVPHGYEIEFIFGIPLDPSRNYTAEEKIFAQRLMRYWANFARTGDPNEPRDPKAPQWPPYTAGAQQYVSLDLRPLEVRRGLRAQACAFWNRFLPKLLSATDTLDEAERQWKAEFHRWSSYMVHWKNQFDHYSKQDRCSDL

T1 sequence (P23219 whole entry): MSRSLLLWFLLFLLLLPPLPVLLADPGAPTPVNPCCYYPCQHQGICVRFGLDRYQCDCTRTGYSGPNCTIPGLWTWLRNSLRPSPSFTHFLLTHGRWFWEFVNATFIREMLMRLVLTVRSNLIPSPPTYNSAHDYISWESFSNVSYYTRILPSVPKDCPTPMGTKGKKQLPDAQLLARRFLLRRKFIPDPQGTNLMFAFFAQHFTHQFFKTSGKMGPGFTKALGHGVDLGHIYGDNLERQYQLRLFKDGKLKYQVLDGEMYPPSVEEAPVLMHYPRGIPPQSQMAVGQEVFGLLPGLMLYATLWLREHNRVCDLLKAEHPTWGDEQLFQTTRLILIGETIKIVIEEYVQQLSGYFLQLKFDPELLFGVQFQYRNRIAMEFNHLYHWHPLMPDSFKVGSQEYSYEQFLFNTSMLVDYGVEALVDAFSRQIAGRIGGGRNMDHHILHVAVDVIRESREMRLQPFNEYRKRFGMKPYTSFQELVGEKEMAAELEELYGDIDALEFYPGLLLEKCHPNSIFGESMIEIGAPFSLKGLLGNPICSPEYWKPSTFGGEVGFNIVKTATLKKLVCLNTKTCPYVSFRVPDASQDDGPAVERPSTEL
Chain of Beta-secretase 1 (P56817 whole entry): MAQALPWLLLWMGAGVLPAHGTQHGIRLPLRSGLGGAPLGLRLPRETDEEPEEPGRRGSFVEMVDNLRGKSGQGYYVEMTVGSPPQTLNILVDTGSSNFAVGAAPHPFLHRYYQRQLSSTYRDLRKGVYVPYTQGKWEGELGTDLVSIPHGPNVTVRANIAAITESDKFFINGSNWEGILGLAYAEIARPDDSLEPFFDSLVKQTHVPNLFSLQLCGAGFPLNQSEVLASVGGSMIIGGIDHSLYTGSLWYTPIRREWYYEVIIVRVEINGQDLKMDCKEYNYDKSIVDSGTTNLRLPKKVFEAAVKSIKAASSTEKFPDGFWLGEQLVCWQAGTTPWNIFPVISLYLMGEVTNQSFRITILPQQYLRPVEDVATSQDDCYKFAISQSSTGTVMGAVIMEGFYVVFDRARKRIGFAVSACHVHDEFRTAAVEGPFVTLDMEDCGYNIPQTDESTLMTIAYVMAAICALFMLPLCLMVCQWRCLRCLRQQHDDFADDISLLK

Structure (SMILES) | IC50 [2] [µM] | Ki [3] [µM] | further results
Cc1ccc(C)c(OCCCC(C)(C)C(=O)O)c1 |  |  | inhibition [1]: 18%
COc1cc2ncnc(Nc3ccc(F)c(Cl)c3)c2cc1OCCCN1CCOCC1 [GEFITINIB] |  |  | IC50 (Beta-secretase 1): 20 µM
CC(=O)N[C@@H](Cc1cnc[nH]1)C(=O)N[C@@H](CO)C(=O)N[C@H](C(=O)N[C@@H](CC(C)C)C(=O)N[C@H](C=O)CCC(N)=O)[C@@H](C)O | > 50 |  | 
CC(=O)N[C@@H](CC(N)=O)C(=O)N[C@@H](CO)C(=O)N[C@@H](Cc1ccccc1)C(=O)N[C@@H](CO)C(=O)N[C@@H](CCC(N)=O)C(=O)O |  | 72 | 
O=C(O)c1ccccc1O [SALICYLIC ACID] |  |  | IC50 [4]: 500 µM
CC(=O)N[C@@H](CC(N)=O)C(=O)N[C@@H](CO)C(=O)N[C@H](C(=O)N[C@@H](CO)C(=O)N[C@H](C=O)CCC(N)=O)[C@@H](C)O | 7.5 | 40 | 
CC(=O)N[C@@H](CCC(=O)O)C(=O)N[C@@H](CO)C(=O)N[C@H](C(=O)N[C@@H](CC(C)C)C(=O)N[C@H](C=O)CCC(N)=O)[C@@H](C)O | 7.5 | 8 | 
CCN(CC)C(=O)/C(C#N)=C/c1cc(O)c(O)c([N+](=O)[O-])c1 [ENTACAPONE] |  |  | MIC99 [5]: 260 µM (≈ 79.4 µg/mL); inhibition [6]: 47%
CC(=O)N[C@@H](CC(=O)O)C(=O)N[C@@H](CO)C(=O)N[C@H](C(=O)N[C@@H](CC(C)C)C(=O)N[C@H](C=O)CCC(N)=O)[C@@H](C)O | 10 |  | 
CC(=O)N[C@@H](CC(=O)O)C(=O)N[C@@H](CO)C(=O)N[C@@H](Cc1ccccc1)C(=O)N[C@@H](CC(=O)O)C(=O)N[C@@H](CCC(N)=O)C(=O)O |  | 41 | 
CC(C)(Oc1ccc(Cl)cc1)C(=O)O |  |  | inhibition [1]: 14%
CC(=O)N[C@@H](CC(N)=O)C(=O)N[C@@H](CO)C(=O)N[C@H](C(=O)N[C@@H](CC(=O)O)C(=O)N[C@H](C=O)CCC(N)=O)[C@@H](C)O | 20 |  | 
Cc1ccc(Nc2nccc(N(C)c3ccc4c(C)n(C)nc4c3)n2)cc1S(N)(=O)=O [PAZOPANIB] |  |  | IC50 (Acetylcholinesterase): 0.93 µM

From ChEMBL document CHEMBL3817815, “Impact of Binding Site Comparisons on Medicinal Chemistry and Rational Molecular Design” (J Med Chem, 2016)
